“Also recorded” adds a separate entry of the source.
Assays:
[1] = tested on: 3T3-L1 mature adipocytes; assay: Lipid accumulation in 3T3-L1 adipocytes by Oil Red O staining, with cell count; assay type: cell-based, mouse; conditions: for Number and size of lipid droplets in adipocytes: Oil Red O, microscopy, peptides at 100 μM, three times per week for three weeks (Day 21), vs non-treated control; for Decrease in degree of lipid accumulation: 3T3-L1 mature adipocytes, quantitative Oil Red O analysis, Day 21 (H of FIG. 3); for Reduction of lipid accumulation: murine-based in vitro systems
Method: FIG. 3: Representative photomicrographs showing Oil Red O-stained mature adipocytes treated with peptides at 100 μM (Day 21). H: Quantitative analysis of the lipids accumulated in the adipocytes (Day 21). Control absorbance: 0.526 (Red line). I: Relative cell counts on day 21.
The effects of the minimal short peptides in blocking lipid accumulation in adipocytes were compared with their parent full-length peptide. After generating five different 3 amino acid fragments (KGG, GGR, GRA, RAK, and AKD) from the original ATS peptide (KGGRAKD (SEQ ID NO:1)), each peptide was administered to 3T3-L1 pre-adipocytes in five varying concentrations. Peptides were treated to the adipocytes three times per week for three weeks. Oil Red O staining was utilized to assess the lipid contents in mature adipocytes in culture. The morphological characteristics of 3T3-L1 mature adipocytes were observed by microscopy. […] Furthermore, the lipids were quantitatively analyzed.
The number of viable cells is counted prior to Oil Red O staining using Cell Counting Kit 8 (Dojindo). This cell viability study allows one to determine potential toxicities of the peptides and compensate for cell number variation-causing artifacts. Oil Red O is dissolved in isopropanol at […] to create a working solution. 12 ml of Oil Red O working solution is mixed with 8 ml dH2O and incubated for 10 minutes. This solution is then filtered using a 0.2 μm syringe filter. Adipocytes seeded on 96-well plates are washed with PBS twice. 10% formaldehyde is added for initial fixation and the plates are incubated for at least 30 minutes. The formaldehyde is removed and the cells are once again washed twice, this time with dH2O. 60% isopropanol is added to each well. The plates are incubated for 5 minutes. The isopropanol is removed from the wells and replaced with Oil Red O working solution. The plates are incubated for an additional 10 minutes. The Oil Red O solution is removed and washed four times with dH2O. Lastly, digital micrographs of the lipid droplets in adipocytes are taken using a light microscope. After the staining protocol, all plates are washed three times with 60% isopropanol. Each time, 5 minutes of gentle rocking was used. The Oil Red O is extracted with 100% isopropanol with gentle rocking for 5 minutes. 200 μl isopropanol per well is used as a background to measure absorbance at 492 nm using a BioTek microplate reader.

[2] = tested on: 3T3-L1 cells; assay: Fructose, glucose and sucrose concentration in adipocytes (3T3-L1 cell lysates, Fructose Assay Kit); assay type: cell-based, mouse
Method: (§1) Fructose concentration in 3T3-L1 cell lysates was measured using the Fructose Assay Kit (Abcam, Cambridge, UK). Six-well plates were seeded with 5×10^5 3T3-L1 cells/well one day before treating with 150 μM peptide. After 48 hours of treatment, the cells were harvested and fructose concentrations were assayed according to the manufacturer's instruction.
In order to confirm the effect of peptides on reducing the fructose level in adipocytes, three groups of adipocytes were prepared. Among the three groups, one group was treated with GGR, and another group was treated with RAK. The remaining group was not treated with any peptides and used as a control group. […] Fructose—an intermediate metabolite of glucose—was measured to further probe glucose metabolism. 3T3-L1 cells treated with either peptide had lower fructose concentrations than untreated cells (FIG. 1).
An additional group of adipocytes are treated with one of KGGRAKD, KGG, GGR, GRA, RAK, AKD, DKA, KAR, ARG, RGG, GGK, and DKARGGK in the same manner as Example 1-1.

[3] = tested on: DIO mice; assay: Body weight gain in DIO mice: obesity progression model (OPM) and obesity model (OM); assay type: in vivo; conditions: for Prevention of body weight gain: pre-obese OPM mice on HFD; for Anti-obesity efficacy (body weight): oral administration
Method: Prior to oral administration, peptides were administered to DIO mice via intraperitoneal (IP) and subcutaneous (SC) injections.
In the first phase, peptides were tested on pre-obese mice that were being fed high fat diet (HFD) to induce obesity (obesity progression model, OPM). In the second phase, these peptides were given to mice that had already developed obesity (obesity model, OM). […] As the activity of these three peptides varies depending on the injection route and the disease status, all three peptides, GGR, RAK, and AKD, were tested by oral administration.
Prior to oral administration, GGR, RAK, AKD, full-length ATS, and scrambled RKG peptides were administered to OPM mice via IP and SC injections to further screen an ideal peptide composition. PBS was included as a vehicle group. GGR, RAK, and AKD peptides were discovered to impede body weight gain in OPM mice. GGR and RAK were effective when given IP injections and AKD was effective by SC injections (FIGS. 4 and 5).
The second phase signified the post-obesity stage, where the same methods from phase 1 were used on OM mice.
(§2) GGR, RAK, and AKD peptides were tested in OPM and OM mice by oral administration. […] In obesity progression, adipocytes increase in both number and size due to escalating lipid accumulation (Parlee, S. D., et al., Methods Enzymol 537, 93-122, (2014)). Using the methods described above, abdominal fat pads of GGR, RAK, AKD, or PBS-treated DIO mice were histologically analyzed. Epididymal fat tissues were harvested from two mice per experimental group. All samples were fixed in 4% paraformaldehyde, H&E-stained, and imaged. At a 10× magnification, adipocyte cell counting was performed on the digital slide images using an automated adipocyte counting macro with the ImageJ software. A default thresholding method was used and [cell] sizing boundaries of 40-40,000 were set. Limitations of the segmentation tool led to some erroneous selections or regions of interest (ROI), which were manually corrected by adding or erasing lines. The number of cells per representative field were then determined using the ROI manager in ImageJ. Two or three high power fields (hpf) per tissue and two tissue samples per group were analyzed to reduce variability. Average cell count for each group was calculated accordingly. Areas of all adipocytes of interest were measured using the ROI measurement tool (ImageJ) and average area per cell was calculated accordingly.

[4] = tested on: skin cells; assay: Collagen and fibronectin levels in skin cells upon peptide treatment; assay type: cell-based; conditions: Example 1-18, at a particular concentration, present tense
Method: (§3) An additional group of skin cells are treated with one of […] (SEQ ID NO: 3) and […] (SEQ ID NO: 4) in the same manner as Example 1-1.
The fructose, glucose, and sucrose concentrations in the groups where the above peptides are treated are not affected (data not shown), while the extra cellular matrix molecules, collagen and fibronectin, are determined.

[5] = tested on: skin cells; assay: Fructose, glucose and sucrose concentration in skin cells, same manner as Example 1-1; assay type: cell-based; conditions: Example 1-18, present tense
Method: as §1
An additional group of skin cells are treated with one of KGGRAKD, KGG, GGR, GRA, RAK, AKD, DKA, KAR, ARG, RGG, GGK, and DKARGGK in the same manner as Example 1-1.
An additional group of skin cells were treated with […] (SEQ ID NO: 5) in the same manner as Example 1-1.
as §3

[6] = tested on: abdominal fat pads of DIO mice; assay: Histological analysis of fat pads of DIO mice (adipocyte number and size); assay type: in vivo; conditions: epididymal fat
Method: FIG. 10. Histological analysis fat pads. An automated system detected and counted adipocytes (yellow line). Adipocyte number and size: average of 3 hpf images from 2 mice (total 6 images/group).
as §2
The primary function of adipocytes is to store energy in the form of lipids. The volume of lipid stored in an adipocyte cell increases as the third power of the diameter. Because mature adipocytes are composed of large lipid droplets that are surrounded by very thin cytoplasmic layers, the increase in volume of an adipocyte cell likely indicates increased lipid storage. Thus, smaller adipocyte size/area translates to reduced lipid accumulation.

[7] = Examples 1-2 to 1-11, same manner as Example 1-1
[8] = post-obese OM mice, IP injection
[9] = post-obese OM mice, SC injection
[10] = 3T3-L1 cells, 150 μM peptide, 48 hours, vs untreated control (FIG. 1)

KGG
Number and size of lipid droplets in adipocytes [1]: moderate differences in the morphology of lipid droplets
Fructose concentration in adipocytes vs control group [2, 7]: significantly lower than the control group

DKA
Fructose concentration in adipocytes vs control group [2, 7]: significantly lower than the control group

DKARGGK
Fructose concentration in adipocytes vs control group [2, 7]: significantly lower than the control group

GGR
Prevention of body weight gain / body weight change [3, 8]: positive effects on prevention of body weight gain
Prevention of body weight gain / body weight change [3, 9]: effective
Prevention of body weight gain ([3]; IP injection): positive effects on prevention of body weight gain; also recorded: effective
Decrease in degree of lipid accumulation [1]: approximately 20%
Number and size of lipid droplets in adipocytes [1]: smaller than those in the non-treated control
Reduction of lipid accumulation [1]: effective in reducing lipid accumulation
Fructose concentration in adipocytes vs control group [2, 10]: significantly lower than the control group

ACSSSPSKHCGGGSESPLKRQG
Collagen in skin cells vs control group [4]: significantly higher than the control group
Fibronectin in skin cells vs control group [4]: significantly higher than the control group
Fructose concentration in skin cells [5]: not affected
Glucose concentration in skin cells [5]: not affected
Sucrose concentration in skin cells [5]: not affected

RGG
Fructose concentration in adipocytes vs control group [2, 7]: significantly lower than the control group

GRA
Number and size of lipid droplets in adipocytes [1]: moderate differences in the morphology of lipid droplets
Fructose concentration in adipocytes vs control group [2, 7]: significantly lower than the control group

RAK
Prevention of body weight gain / body weight change [3, 8]: positive effects on prevention of body weight gain
Prevention of body weight gain / body weight change [3, 9]: effective
Anti-obesity efficacy (body weight) ([3]; post-obese OM mice): has anti-obesity efficacy
Prevention of body weight gain ([3]; IP injection): positive effects on prevention of body weight gain; also recorded: effective
Anti-obesity efficacy (body weight) ([3]; pre-obese OPM mice): efficacious over GGR; also recorded: has anti-obesity efficacy
Average cell count per field ([6]; adipocytes, 10× magnification, ImageJ, rank among all experimental groups (FIG. 10)): highest
Activity by histological analysis of the fat pads ([6]; H&E, DIO mice): more active than GGR; also recorded: highest efficacy
Average adipocyte area per cell ([6]; ImageJ ROI, rank among all experimental groups (FIG. 10)): lowest
Decrease in degree of lipid accumulation [1]: approximately 20%
Number and size of lipid droplets in adipocytes [1]: smaller than those in the non-treated control
Reduction of lipid accumulation [1]: effective in reducing lipid accumulation
Fructose concentration in adipocytes vs control group [2, 10]: significantly lower than the control group

RKG [reference compound]
Anti-obesity effects ([3]; IP and SC studies, regardless of injection route or schedule): no anti-obesity effects
Prevention of body weight gain / body weight change [3, 8]: did not show meaningful efficacy over the vehicle group
Prevention of body weight gain ([3]; IP injection): did not show meaningful efficacy over the vehicle group; also recorded: no anti-obese effects
Prevention of body weight gain ([3]; SC injection): no anti-obese effects

KAR
Fructose concentration in adipocytes vs control group [2, 7]: significantly lower than the control group

ACTGSTQHQGGGSEHGAMEI
Collagen in skin cells vs control group [4]: significantly higher than the control group
Fibronectin in skin cells vs control group [4]: significantly higher than the control group
Fructose concentration in skin cells [5]: not affected
Glucose concentration in skin cells [5]: not affected
Sucrose concentration in skin cells [5]: not affected

GGK
Fructose concentration in adipocytes vs control group [2, 7]: significantly lower than the control group

AKD
Prevention of body weight gain ([3]; SC injection): best working peptide; also recorded: effective
Anti-obesity efficacy (body weight) ([3]; pre-obese OPM mice): efficacious over GGR
Decrease in degree of lipid accumulation [1]: approximately 20%
Number and size of lipid droplets in adipocytes [1]: smaller than those in the non-treated control
Reduction of lipid accumulation [1]: effective in reducing lipid accumulation
Fructose concentration in adipocytes vs control group [2, 7]: significantly lower than the control group

ARG
Fructose concentration in adipocytes vs control group [2, 7]: significantly lower than the control group

Source: patent US20240216250A1, “COSMETIC PEPTIDES FOR IMPROVING SKIN REJUVENATION” (Lean Life Sciences, Inc., priority 2021, published 2024)
